The subject of the test is Proteus vulgaris 49. Description: in vitro antimicrobial activity, two-fold agar-plate dilution method (MIC). The format is cell-based. The settings on record: heart infusion agar, 37° C., 20 hours, 10^6 viable cells per ml. The procedure:
in vitro Antimicrobial Activity
in vitro Antimicrobial Activity was determined by the two-fold agar-plate dilution method as described below.
One loopful of an overnight culture of each test strain in Trypticase-soy broth (10^6 viable cells per ml) was streaked on heart infusion agar (HI-agar) containing graded concentrations of the test compound, and the minimal inhibitory concentration (MIC) was expressed in terms of ug/ml after incubation at 37° C. for 20 hours.

Each structure is given as a SMILES string. Converted amounts (≈) assume the structure as drawn.

These results are taken from US5420122A, “3-pyrrolidinylthio-1-azabicyclo-[3.2.0]hept-2-ene-2-carboxylic acid compounds” (Fujisawa Pharmaceutical Co., Ltd., priority 1986, dated 1995).

`C[C@@H](O)[C@H]1C(=O)N2C(C(=O)O)=C(S[C@@H]3CN[C@H](c4nc[nH]n4)C3)[C@H](C)[C@H]12` [Test Compound, (4R,5S,6S )-6-[(1R) -1-Hydroxyethyl]-4-methyl-7-oxo-3-[(2S,4S)-2-(1H-1,2,4-triazol-3-yl)pyrrolidin-4-ylthio]-1-azabicyclo [3.2.0]hept-2-ene-2-carboxylic acid] came in with an MIC of 0.05 mg/L (≈ 0.132 µM).
